Assay results from ChEMBL document CHEMBL1133146, “Potent nonpeptide endothelin antagonists: synthesis and structure-activity relationships of pyrazole-5-carboxylic acids” (Bioorg Med Chem Lett, 2000).

Legend:
[1] = biological target: T1, Endothelin-1 receptor (Rattus norvegicus, UniProt P26684); test: In vitro binding affinity to endothelin A receptor in rat heart ventricles
T1 sequence (P26684 whole entry): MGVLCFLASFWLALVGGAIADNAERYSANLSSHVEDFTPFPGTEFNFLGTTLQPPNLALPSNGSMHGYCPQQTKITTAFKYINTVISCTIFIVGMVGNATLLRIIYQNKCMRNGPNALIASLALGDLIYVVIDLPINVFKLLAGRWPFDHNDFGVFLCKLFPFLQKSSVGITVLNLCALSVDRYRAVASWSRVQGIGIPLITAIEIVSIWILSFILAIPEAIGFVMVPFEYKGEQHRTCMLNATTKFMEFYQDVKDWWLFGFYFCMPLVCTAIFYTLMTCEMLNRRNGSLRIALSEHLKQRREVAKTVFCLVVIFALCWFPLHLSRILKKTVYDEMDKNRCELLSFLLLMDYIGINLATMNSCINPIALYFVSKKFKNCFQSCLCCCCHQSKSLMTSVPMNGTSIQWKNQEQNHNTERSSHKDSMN

[2] = biological target: T2, Endothelin receptor type B (Rattus norvegicus, UniProt P21451); test: In vitro binding affinity to endothelin B receptor in rat cerebellum; assay type: tissue-based
T2 sequence (P21451 whole entry): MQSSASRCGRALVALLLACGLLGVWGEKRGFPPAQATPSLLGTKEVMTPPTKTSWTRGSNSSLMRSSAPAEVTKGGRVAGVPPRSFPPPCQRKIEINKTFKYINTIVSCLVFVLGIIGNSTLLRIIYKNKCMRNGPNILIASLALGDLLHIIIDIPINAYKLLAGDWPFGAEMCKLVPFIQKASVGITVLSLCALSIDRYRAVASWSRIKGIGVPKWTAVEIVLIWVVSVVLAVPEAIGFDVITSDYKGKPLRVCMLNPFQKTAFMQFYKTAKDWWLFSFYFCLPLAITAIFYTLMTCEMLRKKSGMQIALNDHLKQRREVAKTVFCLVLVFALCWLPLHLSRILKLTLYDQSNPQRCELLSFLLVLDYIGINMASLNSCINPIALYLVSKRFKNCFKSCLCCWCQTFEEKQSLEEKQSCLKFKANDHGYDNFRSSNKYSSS

[3] = tested on: Endothelin receptor ET-A/ET-B (Rattus norvegicus); test: Ratio of ETA / ETB was determined; 1/7
[4] = tested on: Endothelin receptor ET-A/ET-B (Rattus norvegicus); test: Ratio of ETA / ETB was determined; 22/1

Structure (SMILES) | IC50 [1] [nM] | IC50 [2] [nM] | Ratio [3] | Ratio [4]
O=C(O)c1c(Cc2cc3c(cc2Cl)OCO3)c(-c2ccccc2)nn1CC1OCCO1 | 70 | 953 |  | 
O=C(O)COc1ccccc1Cn1nc(-c2cccs2)c(Cc2cc3c(cc2Cl)OCO3)c1C(=O)O | 28.3 | 4.6 |  | 
COc1ccc(Cn2nc(-c3cccs3)c(Cc3cc4c(cc3Cl)OCO4)c2C(=O)O)c(OCC(=O)O)c1 | 14.9 | 8.6 |  | 
O=C(O)c1ccc(Cn2nc(-c3ccccc3)c(Cc3cc4c(cc3Cl)OCO4)c2C(=O)O)cc1 | 11 | 2040 |  | 
O=C(O)c1c(Cc2cc3c(cc2Cl)OCO3)c(-c2ccccc2)nn1CC12CC3CC(CC(C3)C1)C2 | 3.4 | 4.9 |  | 
O=C(O)c1c(Cc2cc3c(cc2Cl)OCO3)c(-c2ccccc2)nn1C1CCCCC1 | 226 | 131 |  | 
O=C(O)c1c(Cc2cc3c(cc2Cl)OCO3)c(-c2ccccc2)nn1Cc1cccc(Cl)c1 | 17 | 11 |  | 
O=C(O)c1c(Cc2cc3c(cc2Cl)OCO3)c(-c2cccs2)nn1CC1CCC(C(=O)O)CC1 (stereo not drawn) | 0.81 | 825 |  | 
O=C(O)c1c(Cc2cc3c(cc2Cl)OCO3)c(-c2ccccc2)nn1CC1CCCC(C(=O)O)C1 (stereo not drawn) | 2.5 | 14.8 |  | 
O=C(O)COc1ccccc1Cn1nc(-c2ccccc2)c(Cc2cc3c(cc2Cl)OCO3)c1C(=O)O | 59 | 3.3 |  | 
CCC(CC)Cn1nc(-c2ccccc2)c(Cc2cc3c(cc2Cl)OCO3)c1C(=O)O | 15 | 31 |  | 
O=C(O)c1c(Cc2cc3c(cc2Cl)OCO3)c(-c2ccccc2)nn1Cc1ccc(Cl)c(Cl)c1 | 34 | 26 |  | 
O=C(O)c1c(Cc2cc3c(cc2Cl)OCO3)c(-c2ccco2)nn1CC1CCCCC1 | 1.3 | 9.8 |  | 
COc1cc(Cn2nc(-c3ccccc3)c(Cc3cc4c(cc3Cl)OCO4)c2C(=O)O)cc(OC)c1 | 28 | 9.7 |  | 
O=C(O)c1c(Cc2cc3c(cc2Cl)OCO3)c(-c2ccccc2)nn1CC1CCC(C(=O)O)CC1 (stereo not drawn) | 4.9 | 810 |  | 
O=C(O)c1c(Cc2cc3c(cc2Cl)OCO3)c(-c2cccs2)nn1CC1CCCCC1 | 1.1 | 1.7 |  | 
O=C(O)COC1CCCCC1Cn1nc(-c2ccccc2)c(Cc2cc3c(cc2Cl)OCO3)c1C(=O)O (stereo not drawn) | 20.5 | 3.2 |  | 
O=C(O)c1cc2c(c(Cn3nc(-c4ccccc4)c(Cc4cc5c(cc4Cl)OCO5)c3C(=O)O)c1)OCOC2 | 2.5 | 44 |  | 
O=C(O)c1c(Cc2cc3c(cc2Cl)OCO3)c(-c2ccsc2)nn1CC1CCCCC1 | 1.1 | 3.2 |  | 
O=C(O)c1c(Cc2cc3c(cc2Cl)OCO3)c(-c2cccnc2)nn1CC1CCCCC1 | 17.8 | 6.3 |  | 
O=C(O)c1c(Cc2cc3c(cc2Cl)OCO3)c(-c2ccccc2)nn1CC1CCCCC1 | 3.6 | 2.6 |  | 
O=C(O)c1cc(Cn2nc(-c3ccccc3)c(Cc3cc4c(cc3Cl)OCO4)c2C(=O)O)on1 | 79 | 440 |  | 
COc1ccc(-c2nn(CC3CCCCC3)c(C(=O)O)c2Cc2cc3c(cc2Cl)OCO3)cc1 |  | 178 |  | 
O=C(O)c1c(Cc2cc3c(cc2Cl)OCO3)c(-c2cccs2)nn1CC1CCCC(C(=O)O)C1 (stereo not drawn) | 1.3 | 9.9 | 7 | 
COc1ccc(Cn2nc(-c3ccccc3)c(Cc3cc4c(cc3Cl)OCO4)c2C(=O)O)c(OCC(=O)O)c1 | 89 | 4 |  | 22
O=C(O)c1c(Cc2cc3c(cc2Cl)OCO3)c(-c2ccccn2)nn1CC1CCCCC1 | 4.7 | 3.4 |  | 
